According to ChEMBL document CHEMBL5715940 (Curr Biol, 2007):
Calls of active or inactive are those of the source. The calls are words filed in the database; no cut-off is given here. Residues, ends and D or L forms follow the SMILES beside them. *: point of attachment. Cbz = O=C(OCc1ccccc1)*

Experiments:
[1] = test system: HeLa; test: Induction of mitotic arrest in human HeLa cells with expressing H2B-GFP assessed as cells formed multilobed nuclei at 100 nM; assay type: functional, cell-based
[2] = biological target: Serine/threonine-protein kinase PLK1 (Homo sapiens) (UniProt P53350); test: Inhibition of Plk1 in human HeLa cells assessed as low level of cyclin B in total lysates of cells arrested in mitosis at 100 nM for 13 hr after the second thymidine release by immunoblot analysis
Chain of Serine/threonine-protein kinase PLK1 (Homo sapiens) (P53350 whole entry): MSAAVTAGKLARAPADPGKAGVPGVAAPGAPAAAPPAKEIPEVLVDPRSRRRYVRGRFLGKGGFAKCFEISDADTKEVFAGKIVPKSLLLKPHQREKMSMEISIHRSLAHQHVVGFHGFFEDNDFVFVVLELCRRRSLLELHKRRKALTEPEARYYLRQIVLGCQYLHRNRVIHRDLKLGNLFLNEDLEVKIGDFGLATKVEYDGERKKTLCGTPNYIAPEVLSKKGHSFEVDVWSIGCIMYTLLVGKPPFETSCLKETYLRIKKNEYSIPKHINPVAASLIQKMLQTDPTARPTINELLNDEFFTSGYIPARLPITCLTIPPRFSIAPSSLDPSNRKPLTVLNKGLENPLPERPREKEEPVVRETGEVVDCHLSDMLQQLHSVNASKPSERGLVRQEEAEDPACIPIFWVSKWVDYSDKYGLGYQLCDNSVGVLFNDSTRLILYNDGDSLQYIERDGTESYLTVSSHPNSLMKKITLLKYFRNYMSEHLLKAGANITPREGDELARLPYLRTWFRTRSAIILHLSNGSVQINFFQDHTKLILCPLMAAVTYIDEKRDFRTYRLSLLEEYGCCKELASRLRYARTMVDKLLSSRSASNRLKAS

[3] = test system: HeLa; test: Induction of mitotic arrest in human HeLa cells assessed as cell population in prophase incubated for 4 hrs after thymidine release relative to control relative to control; assay type: functional
[4] = test system: HeLa; test: Induction of mitotic arrest in human HeLa cells assessed as increase of cell population in prophase incubated for 3 hrs after thymidine release; assay type: functional, cell-based
[5] = test system: HeLa; test: Induction of mitotic arrest in human HeLa cells assessed as increase of cell population in prophase incubated for 6 hrs after thymidine release; assay type: functional, cell-based
[6] = test system: HeLa; test: Induction of mitotic arrest in human HeLa cells with stably express GFP-tagged histone H2B assessed as chromosome condensation measured at 730 mins after thymidine release; assay type: functional, cell-based
[7] = test system: HeLa; test: Induction of mitotic arrest in human HeLa cells with stably express GFP-tagged histone H2B assessed as decrease in prometaphase after thymidine release; assay type: functional, cell-based
[8] = test system: HeLa; test: Induction of mitotic arrest in human HeLa cells with expressing H2B-GFP assessed as enter the apoptosis at 100 nM; assay type: functional, cell-based
[9] = test system: HeLa; test: Induction of mitotic arrest in human HeLa cells with expressing H2B-GFP assessed as cells formed multilobed nuclei at 100 nM in the presence of hesperadin; assay type: functional, cell-based
[10] = test system: HeLa; test: Induction of mitotic arrest in human HeLa cells assessed as weakly centrosome in prometaphase arrested cells at 100 nM for 2 hrs by immunofluorescence analysis; assay type: functional, cell-based
[11] = test system: HeLa; test: Induction of mitotic arrest in human HeLa cells assessed as dim kinetochore signal in prometaphase arrested cells at 100 nM for 2 hrs by immunofluorescence analysis; assay type: functional, cell-based
[12] = test system: HeLa; test: Induction of mitotic arrest in human HeLa cells s stably expressing CENPA-GFP assessed as prophase microtubule asters at 100 nM for 4 hr after release by immunofluorescence analysis; assay type: functional, cell-based
[13] = test system: HeLa; test: Induction of mitotic arrest in human HeLa cells s stably expressing CENPA-GFP assessed as appear on mitotic microtubule at 100 nM for 4 hr release after NEBD by immunofluorescence analysis; assay type: functional, cell-based
[14] = test system: HeLa; test: Induction of mitotic arrest in human HeLa cells s stably expressing CENPA-GFP assessed as microtubules instantaneously organized to monopolar spindle at 100 nM for 4 hrs after NEBD by immunofluorescence analysis; assay type: functional, cell-based
[15] = test system: HeLa; test: Induction of mitotic arrest in human HeLa cells s stably expressing CENPA-GFP assessed as spindles lost astral microtubules at 10 uM within 10 to 30 mins by live cell imaging analysis; assay type: functional, cell-based; conditions: time 10-30 min
[16] = test system: HeLa; test: Induction of mitotic arrest in human HeLa cells s stably expressing CENPA-GFP assessed as focus on poles at 10 uM within 10 to 30 mins by live cell imaging analysis; assay type: functional, cell-based; conditions: time 10-30 min
[17] = test system: HeLa; test: Induction of mitotic arrest in human HeLa cells s stably expressing CENPA-GFP assessed as spindle poles often broadened at 10 uM for 30 mins by live cell imaging analysis; assay type: functional, cell-based
[18] = test system: HeLa; test: Induction of mitotic arrest in human HeLa cells stably expressing CENPA-GFP assessed as appearance of shortened spindle formation at 10 uM incubated for 120 mins by live cell imaging analysis; assay type: functional, cell-based
[19] = test system: HeLa; test: Induction of mitotic arrest in human HeLa cells s stably expressing CENPA-GFP assessed as appearance of kinetochore pairs lose at 10 uM for 60 mins by live cell imaging analysis; assay type: functional, cell-based
[20] = test system: HeLa; test: Induction of mitotic arrest in human HeLa cells assessed as appearance of spindles lose the focused poles at 100 nM for 30 mins after thymidine release in the presence of MG132 by immunofluorescence microscopy; assay type: functional, cell-based
[21] = test system: HeLa; test: Induction of mitotic arrest in human HeLa cells assessed as appearance of shortened spindle formation at 100 nM for 60 mins after thymidine release in the presence of MG132 by immunofluorescence microscopy; assay type: functional, cell-based
[22] = test system: HeLa; test: Induction of mitotic arrest in human HeLa cells assessed as appearance of collapse spindle formation at 100 nM for 120 mins after thymidine release in the presence of MG132 by immunofluorescence microscopy; assay type: functional, cell-based
[23] = test system: HeLa; test: Induction of mitotic arrest in human HeLa cells assessed as microtubule structures at 100 nM incubated for 2 hrs after cold treatment by immunofluorescence analysis; assay type: functional, cell-based
[24] = test system: HeLa; test: Induction of mitotic arrest in human HeLa cells assessed as appearance of kinetochore plates connected to few microtubules and lateral attachment at 100 nM incubated for 2 hrs after cold treatment by transmission electron microscopy; assay type: functional, cell-based
[25] = test system: HeLa; test: Induction of mitotic arrest in human HeLa cells assessed as appearance of kinetochore in opposite side of the chromosomes at 100 nM incubated for 2 hrs after cold treatment by transmission electron microscopy; assay type: functional, cell-based
[26] = test system: HeLa; test: Induction of mitotic arrest in human HeLa cells assessed as K-fibers persisted cells at […] incubated for 2 hrs after cold treatment by immunofluorescence analysis; assay type: functional, cell-based
[27] = test system: HeLa; test: Induction of mitotic arrest in human HeLa cells assessed as appearance of microtubule bundles visible at many kinetochores at […] incubated for 2 hrs after cold treatment by transmission electron microscopy; assay type: functional, cell-based
[28] = test system: HeLa; test: Induction of mitotic arrest in human HeLa cells assessed as appearance of kinetochore plates arranged on the spindle center at […] incubated for 2 hrs after cold treatment by transmission electron microscopy; assay type: functional, cell-based
[29] = biological target: Serine/threonine-protein kinase PLK1 (Homo sapiens) (UniProt P53350); conditions: HeLa, dose 100.0 nM, time 12.0 min
[30] = biological target: Serine/threonine-protein kinase PLK1 (Homo sapiens) (UniProt P53350); conditions: HeLa, dose 100.0 nM, time 12.0 min; remark: listed apart in the source
[31] = biological target: Serine/threonine-protein kinase PLK1 (Homo sapiens) (UniProt P53350); test: Inhibition of Plk1 in human HeLa cells assessed as high level of cyclin B in total lysates of cells arrested in mitosis at 50 ng/ml for 13 hr after the second thymidine release by immunoblot analysis
[32] = test system: HeLa; test: Induction of mitotic arrest in human HeLa cells s stably expressing CENPA-GFP assessed as attachment of kinetochores to microtubule at 10 uM for 2 hrs by live cell imaging analysis; assay type: functional, cell-based

SMILES: CCS(=O)(=O)Nc1ccc2c(c1)/C(=C(\Nc1ccc(CN3CCCCC3)cc1)c1ccccc1)C(=O)N2
- Activity [1]: Active
- inhibition [2]: Active

SMILES: CC[C@@H]1C(=O)N(C)c2cnc(Nc3ccc(C(=O)NC4CCN(C)CC4)cc3OC)nc2N1C1CCCC1 [BI-2536]
- Activity [3]: 30%
- Activity [4]: Active
- Activity [5]: Active
- Activity [6]: Active
- Activity [7]: Active
- Activity [8]: Active
- Activity [9]: Active
- Activity [10]: Active
- Activity [11]: Active
- Activity [12]: inactive
- Activity [13]: Active
- Activity [14]: Active
- Activity [15]: Active
- Activity [16]: Active
- Activity [17]: Active
- Activity [18]: Active
- Activity [19]: Active
- Activity [20]: Active
- Activity [21]: Active
- Activity [22]: Active
- Activity [23]: inactive
- Activity [24]: Active
- Activity [25]: Active

SMILES: CCOC(=O)C1=C(C)NC(=S)NC1c1cccc(O)c1 (stereo not drawn) [MONASTROL]
- Activity [3]: 5%
- Activity [26]: Active
- Activity [27]: Active
- Activity [28]: Active
- inhibition [29]: Active
- inhibition [30]: Active

SMILES: COC(=O)Nc1nc2cc(C(=O)c3cccs3)ccc2[nH]1
- inhibition [31]: Active

SMILES: CC(C)C[C@@H](C=O)NC(=O)[C@H](CC(C)C)NC(=O)[C@H](CC(C)C)NC(=O)OCc1ccccc1 (Cbz-Leu-Leu-Leu-aldehyde)
- Activity [32]: Active
